The target of one test is NET (Rattus norvegicus (Rat), UniProt Q9WTR4). The test is described as follows: Norepinephrine Transporter Binding Assay ([3H]Nisoxetine, rat frontal cortex membranes).
Sequence of NET (Q9WTR4 entry or part of it): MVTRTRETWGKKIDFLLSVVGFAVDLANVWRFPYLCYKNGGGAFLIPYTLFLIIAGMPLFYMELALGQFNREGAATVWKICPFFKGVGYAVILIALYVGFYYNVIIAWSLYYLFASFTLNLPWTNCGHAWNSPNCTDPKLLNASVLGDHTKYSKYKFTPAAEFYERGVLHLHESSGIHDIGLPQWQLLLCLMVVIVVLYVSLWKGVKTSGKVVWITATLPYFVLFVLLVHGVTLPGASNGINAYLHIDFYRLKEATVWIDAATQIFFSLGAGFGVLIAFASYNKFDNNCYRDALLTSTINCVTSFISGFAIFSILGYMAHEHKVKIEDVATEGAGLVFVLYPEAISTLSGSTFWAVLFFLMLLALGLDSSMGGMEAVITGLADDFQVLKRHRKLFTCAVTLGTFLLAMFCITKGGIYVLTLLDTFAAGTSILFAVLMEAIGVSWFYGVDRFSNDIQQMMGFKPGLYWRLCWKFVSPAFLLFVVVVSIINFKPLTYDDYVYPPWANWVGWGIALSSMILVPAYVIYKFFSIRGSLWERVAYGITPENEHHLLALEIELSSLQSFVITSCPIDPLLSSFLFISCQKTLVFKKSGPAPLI
Settings: not given
How it is done: Binding affinities of all compounds were evaluated at the DAT, SERT, and NET in rat brain membranes using previously described methods:
Norepinephrine Transporter Binding Assay. Brains from male Sprague-Dawley rats weighing 200-225 g (Taconic Labs, Germantown, N.Y.) were removed, frontal cortex dissected and rapidly frozen. Membranes were prepared by homogenizing tissues in 20 volumes (w/v) of 50 mM Tris containing 120 mM NaCl and 5 mM KCl, (pH 7.4 at 25° C.), using a Brinkman Polytron and centrifuged at 50,000×g for 10 min at 4° C. The resulting pellet was resuspended in buffer, recentrifuged and resuspended in buffer to a concentration of 80 mg/mL. Ligand binding experiments were conducted in assay tubes containing 0.5 mL buffer for 60 min at 0-4° C. […] Nonspecific binding was determined using 1 mM desipramine. Incubations were terminated by rapid filtration through Whatman GF/B filters, presoaked in 0.05% polyethylenimine, using a Brandel R48 filtering manifold (Brandel Instruments Gaithersburg, Md.). The filters were washed twice with 3 mL cold buffer and transferred to scintillation vials. Beckman Ready Value (3.0 mL) was added and the vials were counted using a Beckman 6000 liquid scintillation counter (Beckman Coulter Instruments, Fullerton, Calif.). […] All compounds were tested as racemic mixtures.
For the compound `O=C(CSC(c1ccc(Br)cc1)c1ccc(Br)cc1)NCCCc1ccccc1` [Compound 2x, 2-((Bis(4-bromophenyl)methyl)thio)-N-(3-phenylpropyl)acetamide], affinity was put at a Ki of 36.3 µM.
Same read-out and setting: next, `O=C(CSC(c1ccccc1)c1ccccc1)NCC1CC1` [Compound 2o, 2-(Benzhydrylthio)-N-(cyclopropylmethyl)acetamide]: more than 100 µM; `CC(O)CN1CCN(CC[S+]([O-])C(c2ccc(F)cc2)c2ccc(F)cc2)CC1` (racemic) [Compound 10d, 1-(4-(2-((Bis(4-fluorophenyl)methyl)sulfinyl)ethyl)piperazin-1-yl)propan-2-ol]: more than 100 µM.
Regarding `O=C(CSC(c1ccc(Br)cc1)c1ccc(Br)cc1)NCC1CC1` [Compound 2q, 2-((Bis(4-bromophenyl)methyl)thio)-N-(cyclopropylmethyl)acetamide], the inhibition constant Ki – broadly, a measure of affinity in units of concentration, obtained from inhibition or displacement – is more than 100 µM.
The same measure, in the same setting: then `CCCCNCC[S+]([O-])C(c1ccccc1)c1ccccc1` (centres unmarked) [Compound 5b, N-(2-(benzhydrylsulfinyl)ethyl)butan-1-amine], with more than 140 µM; and `[O-][S+](CCN1CCN(CCCc2ccccc2)CC1)C(c1ccc(F)cc1)c1ccc(F)cc1` (centres unmarked) [Compound 8b, 1-(2-((Bis(4-fluorophenyl)methyl)sulfinyl)ethyl)-4-(3-phenylpropyl)piperazine], with 4.28 ± 0.343 µM.
Still for that read-out and setting: then `[O-][S+](CCN1CCN(CCCc2ccccc2)CC1)C(c1ccccc1)c1ccccc1` (centres unmarked) [Compound 8a, 1-(2-(Benzhydrylsulfinyl)ethyl)-4-(3-phenylpropyl)piperazine], with 5.54 ± 0.808 µM; and `NC(=O)CSC(c1ccccc1)c1ccccc1` [Compound 2a, 2-(Benzhydrylthio)acetamide], with more than 100 µM.
Still for that read-out and setting: then `[O-][S+](CCN1CCN(CC(O)Cc2ccccc2)CC1)C(c1ccccc1)c1ccccc1` (racemic) [Compound 10g, 1-(4-(2-(Benzhydrylsulfinyl)ethyl)piperazin-1-yl)-3-phenylpropan-2-ol], with 25.3 ± 2.04 µM.
With `NC(=O)C[S+]([O-])C(c1cccc(F)c1)c1cccc(F)c1` (centres unmarked) [Compound 3c, 2-((Bis(3-fluorophenyl)methyl)sulfinyl)acetamide], the Ki was more than 100 µM.
On the same count and under the same terms, next, `[O-][S+](CCNCCCc1ccccc1)C(c1ccc(Cl)cc1)c1ccc(Cl)cc1` (centres unmarked) [Compound 5d, N-(2-((bis(4-chlorophenyl)methyl)sulfinyl)ethyl)-3-phenylpropan-1-amine]: 5.8 µM.
Same read-out and setting: then `[O-][S+](CCNCCCc1ccccc1)C(c1ccc(F)cc1)c1ccc(F)cc1` (centres unmarked) [Compound 5c, N-(2-((bis(4-fluorophenyl)methyl)sulfinyl)ethyl)-3-phenylpropan-1-amine], with 3.28 µM; and `CCCCNC(=O)CSC(c1ccccc1)c1ccccc1` [Compound 2r, 2-(Benzhydrylthio)-N-butylacetamide], with more than 0.1 µM.
On the same count and under the same terms, then `NC(=O)C[S+]([O-])C(c1cccc(Cl)c1)c1cccc(Cl)c1` (centres unmarked) [Compound 3d, 2-((Bis(3-chlorophenyl)methyl)sulfinyl)acetamide], with more than 100 µM.
For the compound `CNC(=O)CSC(c1ccccc1)c1ccccc1` [Compound 2g, 2-(Benzhydrylthio)-N-methylacetamide], the affinity corresponds to a Ki of 27.3 µM.
`OC(Cc1ccccc1)CN1CCN(CCSC(c2ccccc2)c2ccccc2)CC1` (racemic) [Compound 9g, 1-(4-(2-(Benzhydrylthio)ethyl)piperazin-1-yl)-3-phenylpropan-2-ol] showed an inhibition constant Ki of 1.43 ± 0.118 µM.
The same measure, in the same setting: then `CCCNC(=O)CSC(c1ccc(F)cc1)c1ccc(F)cc1` [Compound 2l, 2-((Bis(4-fluorophenyl)methyl)thio)-N-propylacetamide], with 61.7 µM; and `Fc1ccc(C(SCCN2CCN(CCCc3ccccc3)CC2)c2ccc(F)cc2)cc1` [Compound 7b, 1-(2-((Bis(4-fluorophenyl)methyl)thio)ethyl)-4-(3-phenylpropyl)piperazine], with 1.89 ± 0.116 µM.
Still for that read-out and setting: then `CCCNC(=O)CSC(c1ccc(Br)cc1)c1ccc(Br)cc1` [Compound 2n, 2-((Bis(4-bromophenyl)methyl)thio)-N-propylacetamide], with 10.6 µM.
For the compound `CNC(=O)C[S+]([O-])C(c1ccccc1)c1ccccc1` (centres unmarked) [Compound 3f, 2-(Benzhydrylsulfinyl)-N-methylacetamide], the Ki was more than 100 µM.
Compound `NC(=O)CSC(c1cccc(Cl)c1)c1cccc(Cl)c1` [Compound 2e, 2-((Bis(3-chlorophenyl)methyl)thio)acetamide] gave a Ki of 34 µM.
`O=C(C[S+]([O-])C(c1ccc(Br)cc1)c1ccc(Br)cc1)NCCCc1ccccc1` (centres unmarked) [Compound 3g, 2-(Bis(4-bromophenyl)methylsulfinyl)-N-(3-phenylpropyl)acetamide]: the Ki was more than 100 µM.
On the same count and under the same terms, then `O=C(CSC(c1ccc(F)cc1)c1ccc(F)cc1)NCCCc1ccccc1` [Compound 2v, 2-((Bis(4-fluorophenyl)methyl)thio)-N-(3-phenylpropyl)acetamide], with more than 100 µM.
The same measure, in the same setting: then `Cc1ccc(C(c2ccc(C)cc2)[S+]([O-])CC(N)=O)cc1` (centres unmarked) [Compound 3a, 2-((Di-p-tolylmethyl)sulfinyl)acetamide], with more than 100 µM.
Same read-out and setting: next, `CCCNC(=O)CSC(c1ccccc1)c1ccccc1` [Compound 2k, 2-(Benzhydrylthio)-N-propylacetamide]: 55.9 µM; `CC(O)CN1CCN(CCSC(c2ccccc2)c2ccccc2)CC1` (racemic) [Compound 9a, 1-(4-(2-(Benzhydrylthio)ethyl)piperazin-1-yl)propan-2-ol]: 44.5 ± 2.4 µM; `CC(O)CN1CCN(CC[S+]([O-])C(c2ccccc2)c2ccccc2)CC1` (racemic) [Compound 10a, 1-(4-(2-(Benzhydrylsulfinyl)ethyl)piperazin-1-yl)propan-2-ol]: more than 100 µM.
`C=CCNC(=O)CSC(c1ccccc1)c1ccccc1` [Compound 2j, N-Allyl-2-(benzhydrylthio)acetamide] had a Ki of more than 230 µM.
On the same count and under the same terms, then `O=C(CSC(c1ccc(Br)cc1)c1ccc(Br)cc1)NCCCCc1ccccc1` [Compound 2z, 2-((Bis(4-bromophenyl)methyl)thio)-N-(4-phenylbutyl)acetamide], with more than 100 µM.
Same read-out and setting: next, `c1ccc(CCCNCCSC(c2ccccc2)c2ccccc2)cc1` [Compound 4f, N-(2-(benzhydrylthio)ethyl)-3-phenylpropan-1-amine]: 3.91 µM.
With `NC(=O)C[S+]([O-])C(c1ccccc1)c1cccc(Br)c1` (centres unmarked) [Compound 3e, 2-(((3-Bromophenyl)(phenyl)methyl)sulfinyl)acetamide], the inhibition constant (Ki) was more than 100 µM.
As for `OC(Cc1ccccc1)CN1CCN(CCSC(c2ccc(F)cc2)c2ccc(F)cc2)CC1` (racemic) [Compound 9j, 1-(4-(2-((Bis(4-fluorophenyl)methyl)thio)ethyl)piperazin-1-yl)-3-phenylpropan-2-ol], the Ki was 1.95 ± 0.227 µM.
Same read-out and setting: next, `O=C(CSC(c1ccc(F)cc1)c1ccc(F)cc1)NCC1CC1` [Compound 2p, 2-((Bis(4-fluorophenyl)methyl)thio)-N-(cyclopropylmethyl)acetamide]: 57.6 µM.
Still for that read-out and setting: next, `CCCCNCCSC(c1ccccc1)c1ccccc1` [Compound 4e, N-(2-(benzhydrylthio)ethyl)butan-1-amine]: 11.5 µM.

Staying with this test, now noted: Table 1, thioacetamide and sulfinylacetamide analogs; rat brain membranes; racemic mixtures.
Regarding `O=C(CSC(c1ccc(Br)cc1)c1ccc(Br)cc1)NCCCCc1ccccc1` [Compound 2z, 2-((Bis(4-bromophenyl)methyl)thio)-N-(4-phenylbutyl)acetamide], the “NET Ki (nM) ± S.E.M.” value was “no displacement”.

The test is the same for the next values; noted with them: Table 5, piperazinyl derivatives; rat brain membranes; read-out: NET Ki ± SEM.
`c1ccc(CCCN2CCN(CCSC(c3ccccc3)c3ccccc3)CC2)cc1` [Compound 7a, 1-(2-(Benzhydrylthio)ethyl)-4-(3-phenylpropyl)piperazine]: the Ki amounted to 0.988 ± 0.0228 µM.

In another test the target is human DAT wild type (Homo sapiens (Human), UniProt Q01959). The test can be described thus: [3H]DA uptake inhibition in intact COS7 cells, hDAT WT. The test is classed as cell-based. To be noted: [3H]DA uptake inhibition potency, read-out: hDAT WT Ki [S.E. interval].
For `CNC(=O)CSC(c1ccccc1)c1ccccc1` [Compound 2g, 2-(Benzhydrylthio)-N-methylacetamide], the Ki stood at 5.5 µM.

The target in the next test is human DAT A480T mutant (Homo sapiens (Human), UniProt Q01959, A480T). The test is described as follows: [3H]DA uptake inhibition in intact COS7 cells, hDAT A480T. To be noted: read-out: hDAT A480T Ki [S.E. interval], [3H]DA uptake inhibition potency.
Sequence of human DAT A480T mutant (Q01959 whole entry A480T): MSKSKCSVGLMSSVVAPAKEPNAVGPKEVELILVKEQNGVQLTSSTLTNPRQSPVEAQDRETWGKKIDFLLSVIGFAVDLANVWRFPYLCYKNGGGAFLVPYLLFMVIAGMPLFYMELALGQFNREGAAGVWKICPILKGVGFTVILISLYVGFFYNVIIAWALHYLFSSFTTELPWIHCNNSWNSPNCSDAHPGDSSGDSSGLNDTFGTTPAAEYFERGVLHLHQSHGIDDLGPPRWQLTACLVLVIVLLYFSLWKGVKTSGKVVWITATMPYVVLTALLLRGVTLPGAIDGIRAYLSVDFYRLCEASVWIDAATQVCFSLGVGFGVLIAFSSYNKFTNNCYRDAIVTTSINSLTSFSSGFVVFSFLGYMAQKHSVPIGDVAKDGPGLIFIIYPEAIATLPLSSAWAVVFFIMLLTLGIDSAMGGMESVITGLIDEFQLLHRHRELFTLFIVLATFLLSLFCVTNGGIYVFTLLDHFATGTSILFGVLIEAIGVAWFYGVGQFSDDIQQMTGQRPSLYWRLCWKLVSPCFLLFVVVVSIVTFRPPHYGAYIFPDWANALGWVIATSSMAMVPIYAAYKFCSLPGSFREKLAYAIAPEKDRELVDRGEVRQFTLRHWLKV
Take `CNC(=O)CSC(c1ccccc1)c1ccccc1` [Compound 2g, 2-(Benzhydrylthio)-N-methylacetamide]: the Ki was determined as 3.6 µM.

These data come from patent US10913711B2, “Potent and selective inhibitors of monoamine transporters; method of making; and use thereof” (priority 2013, dated 2021).
